Test results from patent US12559750B2, “Methods and compositions for treatment of polycystic kidney disease” (Regulus Therapeutics Inc., priority 2021, dated 2026).

Target: AMPA-R
Experiment: [3H]AMPA radioligand binding assay on rat brain synaptic membranes;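 further: competition binding in which test compounds at rising concentrations displace [3H]AMPA from AMPA-R on rat brain synaptic membranes, with reduced bound radioligand as read-out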

Sequence | IC50 (Experiment #2) [µM] | % Inhibition @ 0.1 uM (Experiment #2, 0.1 uM) [%] | % Inhibition @ 1 uM (Experiment #2, 1 uM) [%] | % Inhibition @ 10 uM (Experiment #2, 10 uM) [%] | % Inhibition @ 100 uM (Experiment #2, 100 uM) [%] | other results
ASGLCMAFCFUFUMTLGS [RG-NG-1012] | 2.56 | 9.9 | 38.5 | 69 | 88.3 | –
ASGECMAFCFUFUMTEGS [RG-NG-1008] | 56.6 | −22.4 | 13.6 | 22.1 | 59.6 | –
AECETEGSTEAASGSCMAFCFUFUMUSCS (ACTGTAAGCACUUUC; S-cEt, 2'-MOE, 2'-F, 2'-OMe modifications; modified_base 3 OTHER; thymine; modified_base 5 OTHER; misc_feature 1..15 Synthetic: RG-NG-1018; modified_base 1..3 OTHER; 2'-O-methoxyethyl nucleoside; modified_base 4 OTHER; S-constrained ethyl nucleoside; modified_base 7..8 OTHER; modified_base 9 OTHER; 2'-O-methyl nucleoside; modified_base 10..12 OTHE) | – | – | – | – | – | IC50 (Experiment #3): > 100 µM; % Inhibition @ 0.1 uM (Experiment #3, 0.1 uM): 3%; % Inhibition @ 1 uM (Experiment #3, 1 uM): 8.1%; % Inhibition @ 10 uM (Experiment #3, 10 uM): 1%; % Inhibition @ 100 uM (Experiment #3, 100 uM): 12.3%
ASGSCMALCFUFUMUSCS [RG-NG-1026] | > 100 | −3.3 | −1.1 | −3.5 | 2.3 | –
ASGSCMAFCFUFUMUSGE [RG-NG-1025] | – | – | – | – | – | IC50 (Experiment #3): 1.85 µM; % Inhibition @ 0.1 uM (Experiment #3, 0.1 uM): −3.8%; % Inhibition @ 1 uM (Experiment #3, 1 uM): 36.5%; % Inhibition @ 10 uM (Experiment #3, 10 uM): 84.1%; % Inhibition @ 100 uM (Experiment #3, 100 uM): 96.4%
USASAMGCSASCSUMUMUSGS (antisense UAAGCACUUUG; cEt at 1, 2, 5, 6, 7, 10, 11, 2'-O-methyl at 3, 8, 9, other sugars and backbone not given here) [RG-NG-1005] | – | – | – | – | – | IC50 (Experiment #1): > 100 µM; % Inhibition @ 0.1 uM (Experiment #1, 0.1 uM): 10.8%; % Inhibition @ 1 uM (Experiment #1, 1 uM): −1.3%; % Inhibition @ 10 uM (Experiment #1, 10 uM): 0.8%; % Inhibition @ 100 uM (Experiment #1, 100 uM): 28.3%
ASGSCSAFCFUFUMUSCS [RG-NG-1027] | > 100 | −2.2 | 2.3 | −2.2 | 3 | –
TEAFASGSCMAFCFUFUMUSCS (TAAGCACUUUC; 2'-MOE, S-cEt, 2'-F, 2'-OMe modifications; modified_base 1 OTHER; thymine; misc_feature 1..11 Synthetic: RG-NG-1022; modified_base 1..2 OTHER; 2'-O-methoxyethyl nucleoside; modified_base 3..4 OTHER; S-constrained ethyl nucleoside; modified_base 5 OTHER; 2'-O-methyl nucleoside; modified_base 6..8 OTHER; 2'-fluoro nucleoside; modified_base 9 OTHER; modified_base 10..11 OTHER) | – | – | – | – | – | IC50 (Experiment #3): > 100 µM; % Inhibition @ 0.1 uM (Experiment #3, 0.1 uM): −23.5%; % Inhibition @ 1 uM (Experiment #3, 1 uM): −5.4%; % Inhibition @ 10 uM (Experiment #3, 10 uM): −7%; % Inhibition @ 100 uM (Experiment #3, 100 uM): −10.9%
ASGSCMASCMUSUMUSGS [RG-NG-1003] | – | – | – | – | – | IC50 (Experiment #1): 9.26 µM; % Inhibition @ 0.1 uM (Experiment #1, 0.1 uM): 5.7%; % Inhibition @ 1 uM (Experiment #1, 1 uM): 13.9%; % Inhibition @ 10 uM (Experiment #1, 10 uM): 56.9%; % Inhibition @ 100 uM (Experiment #1, 100 uM): 77.8%
AMAMGLCLALCLUMTLUCM [RG-NG-1030] | > 100 | 2.9 | 6.5 | 15 | 1.9 | –
ASGSCFAFCFUFUFUSGS [RG-NG-1007] | 1.69 | 3.1 | 39.7 | 83.2 | 94.3 | –
TEGSTEAASGSCMAFCFUFUMUSCS (TGTAAGCACUUUC; anti-miR; 2'-MOE at 1, 3, cEt at 2, 5, 6, 12, 13, 2'-O-methyl at 7, 11, 2'-fluoro at 8, 9, 10, other sugars and backbone not given here) [RG-NG-1020] | – | – | – | – | – | IC50 (Experiment #3): > 100 µM; % Inhibition @ 0.1 uM (Experiment #3, 0.1 uM): 17%; % Inhibition @ 1 uM (Experiment #3, 1 uM): 6.6%; % Inhibition @ 10 uM (Experiment #3, 10 uM): −23.3%; % Inhibition @ 100 uM (Experiment #3, 100 uM): −7.9%
ASGSCMAFCFUFUMUSGM [RG-NG-1034] | – | – | – | – | – | IC50 (Table 8): 1.2 µM; % Inhibition @ Concentration 100 uM (Table 8 (3′-terminal nucleobase/sugar variants), 100 uM): 99.7%; % Inhibition @ Concentration 0.1 uM (Table 8, 0.1 uM): 14.3%; % Inhibition @ Concentration 1 uM (Table 8, 1 uM): 44.8%; % Inhibition @ Concentration 10 uM (Table 8, 10 uM): 85.2%
ALGLCMAFCFUFUMUSGS [RG-NG-1011] | 2.56 | −2.2 | 30.6 | 78.5 | 94 | –
ASGSCMAFCFUFUMUS [RG-NG-1014] | > 100 | 14.9 | −5.5 | 8.6 | 20.4 | –
AMAMGLCLALCLUMTLUM [RG-NG-1031] | > 100 | −4.3 | 1 | 2.7 | 16.7 | –
ALGLCLALCLTLTLTLGL [RG-NG-1006] | – | – | – | – | – | IC50 (Experiment #1): 2.77 µM; % Inhibition @ 0.1 uM (Experiment #1, 0.1 uM): 6.7%; % Inhibition @ 1 uM (Experiment #1, 1 uM): 35.3%; % Inhibition @ 10 uM (Experiment #1, 10 uM): 68.9%; % Inhibition @ 100 uM (Experiment #1, 100 uM): 93.9%
USASASGSCSASCSUSUSUSGS [RG-NG-1004] | – | – | – | – | – | IC50 (Experiment #1): 17.3 µM; % Inhibition @ 0.1 uM (Experiment #1, 0.1 uM): −4.7%; % Inhibition @ 1 uM (Experiment #1, 1 uM): 4.7%; % Inhibition @ 10 uM (Experiment #1, 10 uM): 44.2%; % Inhibition @ 100 uM (Experiment #1, 100 uM): 76.1%
